Holding throughout (assay): biochemical
What all share (parameters): Eurofins KinaseProfiler full panel at Km ATP, residual kinase activity (%) relative to DMSO

Assay [1] addresses T1, Arg(h) (Homo sapiens, UniProt P42684).
T1 construct: gene ABL2
Put shortly: (§1)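 Two 10 µM single-concentration screens were run: a competition-binding screen, in which DNA-tagged kinase bound to immobilized ligands was quantified by qPCR, and a radiometric activity panel at Km ATP. Each is expressed as residual kinase activity (%).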

Assay [2] deals with Flt1(h) (Homo sapiens, UniProt P17948). Put shortly:
as §1

Assay [3] addresses T2, Fms(Y969C)(h) (Homo sapiens, UniProt P07333, Y969C).
T2 construct: gene CSF1R
The gist of the method: as §1

Assay [4] concerns the target T3, MARK4(h) (Homo sapiens, UniProt Q96L34).
T3 sequence (Q96L34 1-752): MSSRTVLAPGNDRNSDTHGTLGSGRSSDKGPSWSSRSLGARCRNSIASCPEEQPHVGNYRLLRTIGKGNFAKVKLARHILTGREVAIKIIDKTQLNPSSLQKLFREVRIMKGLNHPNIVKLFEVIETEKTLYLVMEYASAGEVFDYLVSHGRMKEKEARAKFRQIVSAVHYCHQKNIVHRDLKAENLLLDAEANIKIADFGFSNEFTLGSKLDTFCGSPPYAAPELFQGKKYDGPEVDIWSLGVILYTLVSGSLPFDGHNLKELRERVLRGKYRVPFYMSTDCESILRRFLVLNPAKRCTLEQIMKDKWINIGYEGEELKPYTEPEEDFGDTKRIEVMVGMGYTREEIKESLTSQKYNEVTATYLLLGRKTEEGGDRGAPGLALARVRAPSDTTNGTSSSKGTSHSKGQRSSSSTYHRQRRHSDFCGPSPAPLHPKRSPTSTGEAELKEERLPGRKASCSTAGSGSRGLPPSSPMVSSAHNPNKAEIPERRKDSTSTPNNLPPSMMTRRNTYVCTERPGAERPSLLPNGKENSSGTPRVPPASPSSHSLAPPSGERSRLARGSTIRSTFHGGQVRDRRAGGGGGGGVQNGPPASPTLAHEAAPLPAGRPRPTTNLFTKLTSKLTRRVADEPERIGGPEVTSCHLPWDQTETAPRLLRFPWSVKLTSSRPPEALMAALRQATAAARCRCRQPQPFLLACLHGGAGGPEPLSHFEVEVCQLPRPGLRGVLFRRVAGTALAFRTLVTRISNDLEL
Put shortly:
as §1

In assay [5] the target is T4, MKK3(h) (Homo sapiens, UniProt P46734).
T4 construct: gene MAP2K3
T4 sequence (P46734 1-347): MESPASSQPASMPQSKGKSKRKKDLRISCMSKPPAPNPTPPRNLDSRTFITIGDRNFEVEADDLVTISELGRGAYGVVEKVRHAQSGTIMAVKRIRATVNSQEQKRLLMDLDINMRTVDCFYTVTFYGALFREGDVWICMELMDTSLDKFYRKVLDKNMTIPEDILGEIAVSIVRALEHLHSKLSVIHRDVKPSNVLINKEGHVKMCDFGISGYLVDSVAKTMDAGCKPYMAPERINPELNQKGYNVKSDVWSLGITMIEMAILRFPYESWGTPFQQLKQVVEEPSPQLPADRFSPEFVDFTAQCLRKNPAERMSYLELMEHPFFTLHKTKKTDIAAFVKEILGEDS
The gist of the method: as §1

The target of assay [6] is T5, PKCθ(h) (Homo sapiens, UniProt Q04759).
T5 construct: gene PRKCQ
T5 sequence (Q04759 whole entry): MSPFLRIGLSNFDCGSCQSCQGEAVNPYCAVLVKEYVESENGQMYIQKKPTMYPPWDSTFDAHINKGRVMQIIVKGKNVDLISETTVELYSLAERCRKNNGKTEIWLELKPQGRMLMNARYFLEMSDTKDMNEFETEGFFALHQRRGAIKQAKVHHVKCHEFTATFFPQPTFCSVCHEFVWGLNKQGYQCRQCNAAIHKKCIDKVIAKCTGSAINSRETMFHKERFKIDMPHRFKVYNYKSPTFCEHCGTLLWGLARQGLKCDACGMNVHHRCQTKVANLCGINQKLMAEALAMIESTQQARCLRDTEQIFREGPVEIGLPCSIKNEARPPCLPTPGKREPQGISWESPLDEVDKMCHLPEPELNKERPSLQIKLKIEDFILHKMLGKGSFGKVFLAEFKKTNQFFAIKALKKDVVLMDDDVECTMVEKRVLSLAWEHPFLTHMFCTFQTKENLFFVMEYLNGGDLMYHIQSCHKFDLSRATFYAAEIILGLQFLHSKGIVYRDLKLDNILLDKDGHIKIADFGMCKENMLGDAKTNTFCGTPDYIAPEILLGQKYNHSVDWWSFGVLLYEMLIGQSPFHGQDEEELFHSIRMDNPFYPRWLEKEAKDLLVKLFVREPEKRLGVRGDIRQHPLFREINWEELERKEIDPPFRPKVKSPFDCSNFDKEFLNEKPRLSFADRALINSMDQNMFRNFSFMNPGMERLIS
Put shortly:
as §1

Assay [7] addresses T6, Src(1-530)(h) (Homo sapiens, UniProt P12931).
T6 construct: residues 1-530
The gist of the method:
as §1

The target of assay [8] is T7, Tie2 (h) (Homo sapiens, UniProt Q02763).
T7 construct: gene TEK
T7 sequence (Q02763 whole entry): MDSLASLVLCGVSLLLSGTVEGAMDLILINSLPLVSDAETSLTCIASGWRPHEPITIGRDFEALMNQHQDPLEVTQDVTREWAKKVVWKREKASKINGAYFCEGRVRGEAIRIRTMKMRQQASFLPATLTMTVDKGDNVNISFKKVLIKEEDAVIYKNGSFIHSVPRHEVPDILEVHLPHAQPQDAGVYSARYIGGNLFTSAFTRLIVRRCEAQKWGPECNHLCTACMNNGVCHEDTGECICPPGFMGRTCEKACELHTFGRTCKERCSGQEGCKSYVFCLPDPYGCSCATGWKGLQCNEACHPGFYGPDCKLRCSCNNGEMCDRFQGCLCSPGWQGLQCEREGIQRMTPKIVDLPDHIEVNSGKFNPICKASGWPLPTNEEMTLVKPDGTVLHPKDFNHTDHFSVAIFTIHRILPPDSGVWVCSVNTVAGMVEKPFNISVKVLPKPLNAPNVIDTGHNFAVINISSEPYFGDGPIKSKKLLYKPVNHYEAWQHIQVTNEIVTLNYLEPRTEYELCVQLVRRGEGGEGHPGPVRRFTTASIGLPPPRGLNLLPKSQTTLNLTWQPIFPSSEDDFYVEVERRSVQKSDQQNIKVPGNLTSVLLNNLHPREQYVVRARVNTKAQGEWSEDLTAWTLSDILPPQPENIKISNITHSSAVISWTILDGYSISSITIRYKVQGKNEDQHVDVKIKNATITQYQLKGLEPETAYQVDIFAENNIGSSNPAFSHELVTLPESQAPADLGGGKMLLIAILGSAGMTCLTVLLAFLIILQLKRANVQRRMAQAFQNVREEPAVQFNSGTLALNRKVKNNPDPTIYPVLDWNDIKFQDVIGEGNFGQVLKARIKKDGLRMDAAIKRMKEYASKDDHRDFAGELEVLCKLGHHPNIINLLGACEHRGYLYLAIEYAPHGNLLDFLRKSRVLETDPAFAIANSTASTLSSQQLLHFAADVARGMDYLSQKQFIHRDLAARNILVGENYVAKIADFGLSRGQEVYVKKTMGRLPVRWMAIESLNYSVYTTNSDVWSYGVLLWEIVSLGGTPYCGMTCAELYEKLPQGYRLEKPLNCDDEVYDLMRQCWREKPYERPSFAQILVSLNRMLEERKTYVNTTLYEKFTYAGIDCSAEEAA
Put shortly: as §1

[9] abbreviates: read-out: Residual activity (%) 5at.
The mark [10] stands for this setting: read-out: Residual activity (%) 5ay.
[11] abbreviates: read-out: Residual activity (%) 5as.
Where [12] appears, read: read-out: Residual activity (%) Spautin-1 5aa.

Structures are written as SMILES. Where two headings read alike, the source gives them in different places.

T2 sequence (P07333 whole entry Y969C): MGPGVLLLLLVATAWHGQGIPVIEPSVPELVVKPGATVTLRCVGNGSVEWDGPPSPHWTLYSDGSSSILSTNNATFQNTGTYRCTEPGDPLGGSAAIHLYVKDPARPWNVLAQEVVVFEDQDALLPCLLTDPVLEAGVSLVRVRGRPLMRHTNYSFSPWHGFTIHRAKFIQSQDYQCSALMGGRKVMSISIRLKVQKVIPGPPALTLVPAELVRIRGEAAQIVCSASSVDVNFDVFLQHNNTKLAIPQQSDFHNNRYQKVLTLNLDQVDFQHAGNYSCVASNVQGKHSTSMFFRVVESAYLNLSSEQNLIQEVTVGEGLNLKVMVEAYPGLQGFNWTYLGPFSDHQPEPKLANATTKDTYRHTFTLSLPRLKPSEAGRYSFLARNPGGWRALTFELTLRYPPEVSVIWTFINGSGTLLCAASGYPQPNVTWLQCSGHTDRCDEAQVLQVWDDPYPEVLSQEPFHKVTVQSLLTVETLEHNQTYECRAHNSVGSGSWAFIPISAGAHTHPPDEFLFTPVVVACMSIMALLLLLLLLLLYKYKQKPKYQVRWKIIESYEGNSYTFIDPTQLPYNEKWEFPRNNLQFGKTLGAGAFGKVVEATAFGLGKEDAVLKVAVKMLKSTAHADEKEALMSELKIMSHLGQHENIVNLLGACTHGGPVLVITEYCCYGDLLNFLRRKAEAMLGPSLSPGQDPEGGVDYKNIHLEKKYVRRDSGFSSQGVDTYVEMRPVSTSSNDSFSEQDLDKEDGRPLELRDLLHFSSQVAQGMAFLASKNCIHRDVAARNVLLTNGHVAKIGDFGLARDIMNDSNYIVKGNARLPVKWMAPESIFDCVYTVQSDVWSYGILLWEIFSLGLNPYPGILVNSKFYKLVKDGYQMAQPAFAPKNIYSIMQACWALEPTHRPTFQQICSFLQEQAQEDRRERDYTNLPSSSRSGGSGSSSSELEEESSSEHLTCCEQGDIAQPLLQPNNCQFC
T6 sequence (P12931 whole entry, the tested form may be a part): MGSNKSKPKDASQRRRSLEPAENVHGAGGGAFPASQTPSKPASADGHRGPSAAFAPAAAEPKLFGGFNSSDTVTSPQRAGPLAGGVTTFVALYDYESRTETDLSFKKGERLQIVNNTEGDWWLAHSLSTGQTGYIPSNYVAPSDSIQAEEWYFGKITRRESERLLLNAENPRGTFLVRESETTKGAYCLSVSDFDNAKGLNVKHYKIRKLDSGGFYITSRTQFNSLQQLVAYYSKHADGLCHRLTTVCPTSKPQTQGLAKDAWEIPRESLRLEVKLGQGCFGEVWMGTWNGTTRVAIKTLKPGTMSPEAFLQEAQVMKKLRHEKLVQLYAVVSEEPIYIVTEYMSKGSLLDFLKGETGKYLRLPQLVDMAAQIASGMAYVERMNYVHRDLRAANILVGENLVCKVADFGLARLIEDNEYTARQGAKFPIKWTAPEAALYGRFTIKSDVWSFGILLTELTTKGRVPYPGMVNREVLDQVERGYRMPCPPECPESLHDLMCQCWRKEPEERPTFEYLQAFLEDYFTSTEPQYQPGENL
Sequence of Flt1(h) (P17948 whole entry): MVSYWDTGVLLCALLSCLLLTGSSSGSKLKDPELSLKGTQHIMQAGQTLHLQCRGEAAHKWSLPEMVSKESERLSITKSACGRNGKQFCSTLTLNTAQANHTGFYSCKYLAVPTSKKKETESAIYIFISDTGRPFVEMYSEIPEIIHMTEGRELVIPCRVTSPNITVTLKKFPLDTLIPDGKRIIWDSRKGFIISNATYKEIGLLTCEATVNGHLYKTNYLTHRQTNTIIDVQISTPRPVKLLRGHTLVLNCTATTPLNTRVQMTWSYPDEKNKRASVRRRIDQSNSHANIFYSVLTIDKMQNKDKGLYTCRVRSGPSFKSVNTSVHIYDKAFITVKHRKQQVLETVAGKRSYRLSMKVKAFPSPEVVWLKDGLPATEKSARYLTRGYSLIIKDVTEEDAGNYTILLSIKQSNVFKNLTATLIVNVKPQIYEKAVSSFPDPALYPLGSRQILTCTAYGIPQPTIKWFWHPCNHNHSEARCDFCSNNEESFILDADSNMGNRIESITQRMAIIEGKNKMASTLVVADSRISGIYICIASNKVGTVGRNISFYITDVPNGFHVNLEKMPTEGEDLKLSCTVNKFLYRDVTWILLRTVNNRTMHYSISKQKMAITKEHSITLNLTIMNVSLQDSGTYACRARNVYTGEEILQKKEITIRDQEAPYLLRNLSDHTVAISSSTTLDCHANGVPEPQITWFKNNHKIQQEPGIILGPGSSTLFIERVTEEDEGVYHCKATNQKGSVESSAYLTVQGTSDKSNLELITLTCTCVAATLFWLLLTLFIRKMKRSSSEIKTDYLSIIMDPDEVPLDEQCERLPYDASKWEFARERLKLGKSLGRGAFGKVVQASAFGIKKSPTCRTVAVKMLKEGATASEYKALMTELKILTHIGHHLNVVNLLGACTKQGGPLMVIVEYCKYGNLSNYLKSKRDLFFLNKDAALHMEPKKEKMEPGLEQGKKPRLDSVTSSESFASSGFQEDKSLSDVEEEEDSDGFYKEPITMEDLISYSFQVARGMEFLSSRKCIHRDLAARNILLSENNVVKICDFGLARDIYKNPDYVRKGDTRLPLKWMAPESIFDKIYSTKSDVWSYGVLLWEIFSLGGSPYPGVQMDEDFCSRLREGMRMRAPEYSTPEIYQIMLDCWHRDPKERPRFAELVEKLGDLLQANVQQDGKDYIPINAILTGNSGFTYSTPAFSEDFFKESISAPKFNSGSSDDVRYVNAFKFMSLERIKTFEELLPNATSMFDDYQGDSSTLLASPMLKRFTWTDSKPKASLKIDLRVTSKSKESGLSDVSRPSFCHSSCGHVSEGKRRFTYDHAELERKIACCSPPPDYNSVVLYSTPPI

Regarding `Fc1ccc2ncnc(NCCc3ccc(Cl)cc3)c2c1` [5at, N-[2-(4-Chlorophenyl)Ethyl]-6-Fluoro-4-Quinazolinamine], the remaining activity at 10 µM turned out to be 81% in assay [1] (setting [9]); 80% in assay [2] (setting [9]); 78% in assay [3] (setting [9]); 105% in assay [4] (setting [9]); 86% in assay [5] (setting [9]); 90% in assay [6] (setting [9]). In addition, the remaining activity at 10 µM stood at 81% in assay [7] (setting [9]) and 75% in assay [8] (setting [9]).

As for `COc1ccc2ncnc(Nc3cccc(F)c3)c2c1` [5ay, N-(3-Fluorophenyl)-6-Methoxy-4-Quinazolinamine], the remaining activity at 10 µM in assay [1] (setting [10]) is 73%; in assay [2] (setting [10]), 87%; in assay [3] (setting [10]), 87%; in assay [4] (setting [10]) it was 100%; in assay [5] (setting [10]) it was 105%; in assay [6] (setting [10]), 117%. For the same molecule, the remaining activity at 10 µM in assay [7] (setting [10]) was 90%; in assay [8] (setting [10]) it was 94%.

As for `Fc1ccc(CCNc2ncnc3ccc(F)cc23)cc1` [5as, 6-Fluoro-N-[2-(4-Fluorophenyl)Ethyl]-4-Quinazolinamine], the remaining activity at 10 µM in assay [1] (setting [11]) was 82%; in assay [2] (setting [11]) it was 86%; in assay [3] (setting [11]), 80%; in assay [4] (setting [11]), 104%; in assay [5] (setting [11]), 82%; in assay [6] (setting [11]) it was 100%. Further, the remaining activity at 10 µM was 101% in assay [7] (setting [11]) and 92% in assay [8] (setting [11]).

For `Fc1ccc(CNc2ncnc3ccc(F)cc23)cc1` [5aa, 6-Fluoro-N-(4-fluorobenzyl)-4-Quinazolinamine], the remaining activity at 10 µM in assay [1] (setting [12]) turned out to be 79%; in assay [2] (setting [12]), 101%; in assay [3] (setting [12]), 81%; in assay [4] (setting [12]), 107%; in assay [5] (setting [12]), 101%; in assay [6] (setting [12]) it was 80%. Moreover, the results for the remaining activity at 10 µM in assay [7] (setting [12]) and in assay [8] (setting [12]) were 107% and 104%, respectively.

The values are drawn from PMC7827406, “Structure–Activity Relationship (SAR) Study of Spautin-1 to Entail the Discovery of Novel NEK4 Inhibitors” (International Journal of Molecular Sciences, 2021).
